Reference: US20200281928A1, “VITAMIN B1 IN HIGH DOSES FOR USE IN THE MEDICAL TREATMENT OF MOTOR SYMPTOMS OF SOME SPORADIC NEURODEGENERATIVE DISEASES, OF GENETIC ORIGIN, AND OF CLUSTER HEADACHE AND OF MIGRAINE HEADACHE” (priority 2017, published 2020)
Like-named read-outs stand apart in the source and are kept apart here.

How the values were obtained:
[1] = test system: Cluster Headache (also called Horton headache); conditions: person
Procedure: The patient was evaluated with Cluster Headache Quality of Life (CHQ) scale before starting the treatment and every 15 days after starting the treatment which started in December 2016. The score of this scale ranges from 28 (absence of symptoms) to 140 (maximum deficit, maximum negative influence in daily life activities).
The patient started the therapy with 250 mg of thiamine orally, by increasing by 250 mg every three days.

[2] = test system: Cortico-Basal Degeneration; conditions: for Improvement of motor symptoms: UPDRS portion III, two months of therapy; for UPDRS portion III after therapy: three 100 mg/ml vials intramuscularly per week plus low doses of other group b vitamins and magnesium, two months, scale 0-56
Procedure: We treated two patients affected by such pathology, two men with three vials intramuscularly per week of vitamin B1. One vial included 100 mg/ml of thiamine. The injection was performed in the three odd or even midweek days. The dose was determined empirically based upon the disease progression rapidity.
Furthermore low doses of all other vitamins of the group b, including folic acid, 150 mg of magnesium citrate and 150 mg of magnesium malate, were associated to the treatment.
The patients were evaluated with UPDRS (Unified Parkinson's Disease Rating Scale), scale validated for all Parkinson forms. Herein the scores of third portion (portion III) of this scale will be shown, illustrating the motor problems found by the examiner. […] Both of them were evaluated before starting the treatment and two months after the treatment beginning.
(§1) The diagnoses were made by Italian primary neurological centres based upon anamnestic, clinical, evolutionary, neuroradiological and neurophysiological data.

[3] = test system: Essential Tremor (also called intention tremor); conditions: for improvement of TETRAS ADL Subscale / improvement of TETRAS Performance subscale / TETRAS ADL Subscale score after treatment / TETRAS Performance subscale score after treatment: two 100-mg/ml vials intramuscularly per week, two months; for TETRAS ADL Subscale score after treatment: scale 0-48; for TETRAS Performance subscale score after treatment: scale 0-64
Procedure: Two patients were studied affected by such pathology, a person and a person. The intention tremor, differently from tremor in Parkinson disease appears and increases with muscular activity. The diagnosis was made by neurologists expert in the motion disorders based upon the clinical, neuroradiological and electrophysiological data.
Before starting the treatment, both patients were evaluated with a validated scale called TETRAS (TRG ESSENTIAL TREMOR RATING ASSESSMENT SCALE). They were re-evaluated with the same scale after two months of treatment with two 100-mg/ml vials of thiamine (vitamin B1) intramuscularly performed on Monday and on Thursday morning with the same scale.
In turn, this scale is constituted by two sub-scales. The first one, Activities of Daily Living Subscale (ADL Subscale) measures the impact the tremor has in the activities of daily life and it has a score ranging from 0 (no impact) to 48 (maximum impact).
The second one, Performance Subscale measures the width and the extension of tremor on the body and it has a score ranging from 0 (no tremor) to 64 (tremor with wide shocks and widespread).

[4] = test system: Multisystemic Atrophy (MSA) Type Parkinson (Type P); conditions: for Improvement of motor symptoms: UPDRS portion III, two months of therapy; for UPDRS portion III after therapy: five 100 mg/ml vials intramuscularly per week plus low doses of other group b vitamins and magnesium, two months, scale 0-56
Procedure: (§2) We treated four patients affected by such pathology, two women and two men with five vials intramuscularly per week of vitamin B1. One vial included 100 mg/ml of thiamine. The injection was performed each morning for the first five days of the week. The dose was determined empirically based upon the disease progression rapidity.
(§3) Moreover, low doses of all other vitamins of group b, including folic acid, 150 mg of magnesium citrate and 150 mg of magnesium malate, were associated to the treatment.
The patients were evaluated with UPDRS (Unified Parkinson's Disease Rating Scale), scale validated for all Parkinson forms.
as §1

[5] = test system: Sporadic spinocerebellar ataxia; conditions: for Improvement of motor symptoms: SARA, two months of therapy; for SARA scale after therapy: two vials of thiamine 100 mg/ml twice a week, two months, scale 0-40
Procedure: The diagnosis was made by exclusion, by excluding the genetic forms of spino cerebellar ataxia and the tumour secondary forms.
The patients were evaluated with SARA (Scale for Assessment and Rating of Ataxia), scale validated for all disorders of cerebellar type. The score of this scale ranges from 0 (absence of symptoms) to 40 (maximum deficit).
The diagnoses were made by Italian primary neurological centres based upon the anamnestic, clinical, evolutionary, neuroradiological and neurophysiological and molecular chemistry data.

[6] = test system: Multisystemic Atrophy (MSA) of Cerebellar Type (Type C); conditions: for Improvement of motor symptoms: SARA, two months of therapy; for SARA scale after therapy: five 100 mg/ml vials intramuscularly per week plus low doses of other group b vitamins and magnesium, two months, scale 0-40
Procedure: as §2, with “three” for “four”, “pathology” for “pathology, two women and two men”, “A” for “One”, “every” for “each”
as §3
The patients were evaluated with SARA (Scale for Assessment and Rating of Ataxia), scale validated for all disorders of cerebellar type. The score of this scale ranges 0 (absence of symptoms) to 40 (maximum deficit).
as §1

[7] = test system: Progressive Supranuclear Paralysis; conditions: for Improvement of motor symptoms: UPDRS portion III, two months of therapy; for UPDRS portion III after therapy: five 100 mg/ml vials intramuscularly per week plus low doses of other group b vitamins and magnesium, two months, scale 0-56
Procedure: We treated […] affected by such pathology, two women and two men with five vials intramuscularly per week of vitamin B1. A vial included 100 mg/ml of thiamine. The injection was performed each morning for the first five days of the week. The dose was determined empirically based upon the disease progression rapidity. Furthermore, low doses of all other vitamins of the group b, including folic acid, 150 mg of magnesium citrate and 150 mg of magnesium malate, were associated to the treatment. The patients were evaluated with UPDRS (Unified Parkinson's Disease Rating Scale), scale validated for all Parkinson forms. Herein the scores of third portion (portion III) of this scale will be shown, illustrating the motor problems found by the examiner.
as §1

Cc1ncc(C[n+]2csc(CCO)c2C)c(N)n1 [vitamin B1, thiamine]
time from the beginning until the headache attacks wholly disappeared ([1]; at the dose of 750 mg per day orally, printed as within about 8 days): ≤ 8 days | effect of an attempt of interrupting the treatment ([1]; oral thiamine interrupted): quick re-appearance of headache episodes | outcome of symptoms under continued treatment ([1]; oral thiamine, maintained by continuing the treatment (more than five months)): complete regression of the symptoms | CHQ after treatment ([1]; thiamine orally, 250 mg increased by 250 mg every three days to 750 mg per day, after 15 days, before treatment 82, scale 28 (absence of symptoms) to 140): 28 scores | Improvement of motor symptoms ([2]; patient N1 (person five)): 57.6% | UPDRS portion III after therapy ([2]; patient N1 (person five), before therapy 26): 15 scores | Improvement of motor symptoms ([2]; patient N2 (person six)): 15.3% | UPDRS portion III after therapy ([2]; patient N2 (person six), before therapy 35): 31 scores | improvement of TETRAS ADL Subscale ([3]; patient N1): 75% | improvement of TETRAS Performance subscale ([3]; patient N1): 74.4% | TETRAS ADL Subscale score after treatment ([3]; patient N1, before treatment 16): 4 scores | TETRAS Performance subscale score after treatment ([3]; patient N1, before treatment 19.5): 5 scores | improvement of TETRAS ADL Subscale ([3]; patient N2): 65.3% | improvement of TETRAS Performance subscale ([3]; patient N2): 68.2% | TETRAS Performance subscale score after treatment ([3]; patient N2, before treatment 22): 7 scores | TETRAS ADL Subscale score after treatment ([3]; patient N2, before treatment 23): 8 scores | alteration in the common laboratory examinations ([3]; two Essential Tremor patients, long-term treatment never suspended): nor any alteration in the common laboratory examinations | side effects ([3]; two Essential Tremor patients, long-term treatment never suspended (intramuscular vials or 4 grams each day orally)): no any side effect | result with the equivalent dose orally ([3]; two Essential Tremor patients, 4 grams each day of vitamin B1 orally for some months instead of the vials): keeping the same results of the vials | Improvement of motor symptoms ([4]; patient N1 (person eleven)): 30.8% | UPDRS portion III after therapy ([4]; patient N1 (person eleven), before therapy 26): 18 scores | Improvement of motor symptoms ([4]; patient N2 (person ten)): 11.8% | UPDRS portion III after therapy ([4]; patient N2 (person ten), before therapy 34): 30 scores | Improvement of motor symptoms ([4]; patient N3 (person three)): 55.5% | UPDRS portion III after therapy ([4]; patient N3 (person three), before therapy 9): 5 scores | Improvement of motor symptoms ([4]; patient N4): 47.6% | UPDRS portion III after therapy ([4]; patient N4, before therapy 21): 10 scores | Improvement of motor symptoms ([5]; patient N1 (person nine)): 33.4% | SARA scale after therapy ([5]; patient N1 (person nine), before therapy 9): 6 scores | Improvement of motor symptoms ([5]; patient N2 (person four)): 50.0% | SARA scale after therapy ([5]; patient N2 (person four), before therapy 6): 3 scores | Improvement of motor symptoms ([6]; patient N1 (person one)): 14.3% | SARA scale after therapy ([6]; patient N1 (person one), before therapy 7): 6 scores | Improvement of motor symptoms ([6]; patient N2 (person eight)): 37.5% | SARA scale after therapy ([6]; patient N2 (person eight), before therapy 8): 3 scores | Improvement of motor symptoms ([6]; patient N3): 16.0% | SARA scale after therapy ([6]; patient N3, before therapy 25): 21 scores | Improvement of motor symptoms ([7]; patient N1 (person two)): 20.3% | UPDRS portion III after therapy ([7]; patient N1 (person two), before therapy 31): 25 scores | Improvement of motor symptoms ([7]; patient N2 (person seven)): 19.9% | UPDRS portion III after therapy ([7]; patient N2 (person seven), before therapy 37): 30 scores | Improvement of motor symptoms ([7]; patient N3 (person twelve)): 32.5% | UPDRS portion III after therapy ([7]; patient N3 (person twelve), before therapy 23): 16 scores | Improvement of motor symptoms ([7]; patient N4): 21.8% | UPDRS portion III after therapy ([7]; patient N4, before therapy 28): 22 scores | Improvement of motor symptoms ([7]; patient N5): 26.6% | UPDRS portion III after therapy ([7]; patient N5, before therapy 28): 20 scores
